Data published in US8198507B2, “Transgenic or recombinant non-human mammals and their uses in screening psychoactive medicines” (Institut National de la Sante Et de la Recherche Medicale - …, priority 2000, dated 2012).

Experiments:
[1] = tested on: STOP KO (−/−) mice; conditions: STOP KO (−/−) mothers, short-term treatment (6 to 8 days before birth), 0.5 mg/kg/day in the drinking water, first day post-partum
Method: Post-partum females (second gestation) were reared individually from the beginning of their gestation. On the day of giving birth, the young mice were removed and kept in the warm for one hour. The mother was then removed from her usual cage and three newborns were each placed in a corner of this same cage, at a distance from the nest. Next, the mother was returned to her nest and the number of young mice reinstalled in the nest, over a period of 20 minutes, was evaluated.
The effect of anxiolytics (diazepam) and of neuro-leptics (chlorpromazine, haloperidol or clozapine) on the behavioral disorders of the STOP KO (−/−) mice was evaluated in the maternal behavior test as defined in example 3 (“reinstallation in the nest” test).
(§1) Haloperidol (Haldol^R, JANSSEN-CILAG), chlorpromazine (Largactil^R, RHONE-POULENC) and diazepam (Valium^R, ROCHE) were administered to the mice in the drinking water, at a dose of 0.5 mg/kg/day.
The effect of short-term administration (for 6 to 8 days from the 6th day preceding the birth) of anxiolytics (diazepam) and of neuroleptics (chlorpromazine, haloperidol or clozapine) on the behavioral disorders of the STOP KO (−/−) mice was evaluated in the “reinstallation in the nest” test.

[2] = tested on: STOP KO (−/−) mice; assay: Survival of the newborns of treated STOP KO (−/−) mothers; type: in vivo; conditions: short-term treatment (6 to 8 days before birth), 0.5 mg/kg/day
Method: The survival of the newborns is analyzed among the STOP KO (−/−) mice subjected to various treatments. The newborns are considered to be survivors when they are raised until weaning.
as §1

CN1C(=O)CN=C(c2ccccc2)c2cc(Cl)ccc21 [diazepam]
reinstallation of the young mice in the nest [1]: slightly improved
survival of the young mice [2]: no survival
